Results on 5 molecules are retold here after paper PMC10844371 (Diabetologia, 2023).

The subject of assay [1] is isolated mouse pancreatic islets. The class given is cell-based. The method, then: Experiments were conducted as previously described. Islets were incubated in 0.3 ml EC1 or EC2 media (ESM Table 2) supplemented with glucose and other reagents as indicated.
(§1) All data are reported, unless otherwise stated, as mean values ± SEM for the indicated number of experiments using islets from multiple mice. For hormone release studies, islets were isolated and pooled from 4–16 mice. These islets were then subdivided into groups of 12–20 size-matched islets. Each unique set of islets counted as an experiment with the experiments repeated on 2–4 days. Similarly, each unique group of human islets was treated as an experiment. […] In the Ca^2+ imaging and granule docking experiment, each cell represents an experiment making sure that cells from multiple donors/animals were used. For the in vivo experiments and the perfused pancreas, each mouse count represents an experiment. For two groupings, a t test was conducted. For multiple comparisons, one-way ANOVA was conducted. All statistical tests were performed using Graphpad Prism (version 9.1.0; graphpad.com).

A further assay relates to mouse alpha cells. The assay can be described thus: TIRF imaging of docked secretory granules in mouse alpha cells. It counts as cell-based. The method, then:
Cells were imaged using total internal reflection fluorescence (TIRF) microscopy (AxioObserver Z1 with a ×100/1.45 objective [Carl Zeiss] and a diode-pumped solid state laser at 491 nm). For these measurements, EC1 was used (ESM Table 2). Images from cells infected with preproglucagon promoter (PPPG)-neuropeptide Y (NPY)-enhanced green fluorescent protein (EGFP) virus were recorded using an electron-multiplying charge-coupled device camera (Photometrics Evolve) using ZEN blue. Single images of cells were acquired to measure the number of docked granules. Incoming and outgoing granules during visiting, docking and undocking were determined from multiple frame movies as described previously. Candidate docking or undocking events were found manually as granules that approached the TIRF field with an axial component and became laterally confined for at least two frames. We defined docking as granules that remained confined for at least 1 min. Visitors were those granules that remained for <1 min after appearing at the plasma membrane. Undocking was defined as slow movement of a previously docked granule away from its docking site. Granule density was calculated using a script that used the built-in ‘find maxima’ function in ImageJ (version 1.53c; http://rsbweb.nih.gov/ij) for spot detection.

The next assay deals with P/Q-type Ca^2+ channels. The assay is described as follows: [Ca2+]i imaging of depolarisation-evoked Ca2+ entry in alpha cells (Gcg-GCaMP6f islets). The class given is cell-based, mouse. Conditions: in the presence of GLP-1(9–36) 10 pmol/l; p=0.26. The method, then: For live-cell cytoplasmic free Ca^2+ concentration ([Ca^2+]i) imaging experiments, Gcg-GCaMP6f islets were immobilised to a poly-L-lysine-coated coverslip fixed in a custom-built imaging chamber filled with EC3 (ESM Table 2). [Ca^2+]i was measured in islets from mice expressing GCaMP6f in alpha cells. [Ca^2+]i imaging experiments were then performed using an inverted LSM 510 confocal microscope (Zeiss) controlled with ZEN Black (Zeiss), using a ×40/1.3 oil immersion objective. Time-lapse images were collected every 0.98 s with a frame size of 256×256 pixels, with the bath solution (EC3) perfused at a rate of 0.4 ml/min and heated to 37°C. GCaMP6f was excited by an argon laser (488 nm) and emission was collected at 510 nm.
[Ca^2+]i imaging videos were analysed using the Fiji imaging processing package. The mean fluorescence (F) of each region of interest was normalised to baseline signal (F0) and expressed as F/F0 before exporting into ClampFit (version 10.7; Molecular Devices, CA, USA), where baseline was corrected and AUC was calculated.

The next assay relates to human pancreatic islets. The assay is described as follows: Glucagon secretion in human islets (ELISA). As to conditions: human islets, 10 pmol/l, 1 mmol/l glucose. The class given is cell-based. The method, then: Human pancreatic islets were isolated (with ethical approval and clinical consent) as previously described. Islets from the pancreases of 18 healthy donors and five donors with type 2 diabetes were used (see electronic supplementary material [ESM] Table 1; ESM Human islets checklist).
(§2) Mouse islets were used acutely, except for studies with PTX, wherein islets were treated overnight with the toxin. Human islets were maintained in culture for up to 48 h in RPMI medium containing 10% (vol./vol.) FCS, 1% (vol./vol.) penicillin/streptomycin and 5 mmol/l glucose. Experiments were conducted as previously described. Islets were incubated in 0.3 ml EC1 or EC2 media (ESM Table 2) supplemented with glucose and other reagents as indicated. Glucagon was determined by ELISA (Mercodia).
as §1, with “graphpad.com). It was ascertained that the data were normally distributed.” for “graphpad.com).”
(In general: ELISA stands for enzyme-linked immunosorbent assay.)

The test system of assay [2] is isolated mouse pancreatic islets. The assay is described as follows: Somatostatin secretion in isolated mouse islets (RIA). The class given is cell-based. As to conditions: 1 mmol/l glucose, groups of 20 islets. The method, then: as §2
(§3) Insulin and somatostatin were determined by RIA (Millipore and Diasource ImmunoAssays, respectively) as described previously. In these experiments, rates of release are expressed as % of contents unless otherwise indicated.

Assay [3] shares this test system. The assay is described as follows: Insulin secretion in isolated mouse islets (RIA). It counts as cell-based. The method, then:
Mouse islets were used acutely, except for studies with PTX, wherein islets were treated overnight with the toxin. Human islets were maintained in culture for up to 48 h in RPMI medium containing 10% (vol./vol.) FCS, 1% (vol./vol.) penicillin/streptomycin and 5 mmol/l glucose. Experiments were conducted as previously described. Islets were incubated in 0.3 ml EC1 or EC2 media (ESM Table 2) supplemented with glucose and other reagents as indicated.
as §3

In assay [4] the test system is PKA activity in alpha cells. The assay is described as follows: PKA activity measurements (AKAR3) in alpha cells in intact islets. The class given is cell-based, mouse. The method, then: PKA activity was measured using AKAR3 as previously described. The cells were continuously superfused at a rate of 60 μl/min with EC4 (ESM Table 2).

For the molecule ω-agatoxin, in assay [1] (200 nmol/l, 1 mmol/l glucose), the “effect on glucagon secretion” value is reported as “inhibited glucagon secretion nearly as strongly as GLP-1(9–36)”. Moreover, the “reduction of the number of docked granules” value with mouse alpha cells (200 nmol/l) is “to the same extent as GLP-1(9–36)”. The “further change of Ca2+ entry on addition in the presence of GLP-1(9–36)” value in the assay on P/Q-type Ca^2+ channels is recorded as −8±4%.

Take `CCCOc1ccc(Br)cc1-c1cc(-c2ccc(Cl)cc2)[nH]c1-c1ccncc1` [L-168049]: the “effect on the glucagonostatic effect of GLP-1(9–36)” value in assay [1] (mouse islets, L-168049 100 nmol/l, GLP-1(9–36) 10 pmol/l) was “abolished”.

On to `CC1=NS(=O)(=O)c2cc(Cl)ccc2N1` [diazoxide], for which the “reduction of submembrane granule density” value in the assay on mouse alpha cells (200 μmol/l) was ~ 40%.

Regarding `CC(C)NCC(O)c1ccc(O)c(O)c1` (stereo not drawn) [isoprenaline], the “stimulation of glucagon secretion” value in assay [1] (mouse islets, 1 mmol/l glucose) is over 2.2 fold.

With `CC[C@H](C)[C@H](NC(=O)[C@H](Cc1ccccc1)NC(=O)[C@H](CCC(=O)O)NC(=O)[C@H](CCCCN)NC(=O)[C@H](C)NC(=O)[C@H](C)NC(=O)[C@H](CCC(N)=O)NC(=O)CNC(=O)[C@H](CCC(=O)O)NC(=O)[C@H](CC(C)C)NC(=O)[C@H](Cc1ccc(O)cc1)NC(=O)[C@H](CO)NC(=O)[C@H](CO)NC(=O)[C@@H](NC(=O)[C@H](CC(=O)O)NC(=O)[C@H](CO)NC(=O)[C@@H](NC(=O)[C@H](Cc1ccccc1)NC(=O)[C@@H](NC(=O)CNC(=O)[C@H](CCC(=O)O)NC(=O)[C@H](C)NC(=O)[C@@H](N)Cc1c[nH]cn1)[C@@H](C)O)[C@@H](C)O)C(C)C)C(=O)N[C@@H](C)C(=O)N[C@@H](Cc1c[nH]c2ccccc12)C(=O)N[C@@H](CC(C)C)C(=O)N[C@H](C(=O)N[C@@H](CCCCN)C(=O)NCC(=O)N[C@@H](CCCNC(=N)N)C(N)=O)C(C)C` [GLP-1(7–36)], in assay [1] (10 pmol/l, Glp1r−/− islets, 1 mmol/l glucose), the “inhibitory effect on glucagon secretion in Glp1r−/− mouse islets” value is reported as “persisted”. In addition, the “inhibitory effect on glucagon secretion in Glp1r−/− islets after PTX” value in assay [1] (10 pmol/l, Glp1r−/− islets, PTX pretreatment) is “abolished”. Moreover, the “change of the inhibitory effect on glucagon secretion by exendin(9–39)” value in assay [1] (10 pmol/l, exendin(9–39) 1 μmol/l) was “reduced”. The “glucagonostatic effect in the presence of exendin(9–39)” value in assay [1] (10 pmol/l, exendin(9–39) 1 μmol/l, 1 mmol/l glucose) is recorded as “retained their glucagonostatic effect”. Besides, the “glucagonostatic effect in the presence of the PKA inhibitor 8-Br-Rp-cAMPS” value in assay [1] (8-Br-Rp-cAMPS 10 μmol/l, 1 mmol/l glucose) is recorded as “not affected”. Further, the “glucagonostatic effect remaining with exendin(9–39), in the presence of sitagliptin” value in assay [1] (exendin(9–39) plus DPP-4 inhibitor sitagliptin) was “abolished”. Besides, the “inhibition of glucagon secretion” value in assay [1] (islets cultured overnight without PTX, 1 mmol/l glucose) is listed as ~ 50%; in the assay with human pancreatic islets, ~ 50%. For the same molecule, the “inhibitory effect on glucagon secretion after PTX pretreatment” value in assay [1] (overnight PTX 100 ng/ml, 1 mmol/l glucose) is listed as “unaffected”. Besides, the IC50 in assay [1] (read-out: half-maximal inhibitory concentration (IC50) for inhibition of glucagon secretion, isolated mouse islets, 1 mmol/l glucose, groups of 12 islets from 4–6 mice, glucagon ELISA) is 2.5 pM. In assay [2], the “concentration at which stimulation of somatostatin secretion was already detectable” value turned out to be 10 pmol/L. Further, the “insulinotropic effect in Glp1r−/− mouse islets” value in assay [3] (Glp1r−/− islets) is “lost”. Moreover, the “concentrations at which stimulation of insulin secretion attained statistical significance” value in assay [3] (mouse islets, 1 mmol/l glucose) is at least 100 pmol/L. Also, in assay [4] (10 pmol/l), the “effect on PKA activity in alpha cells” value is “no inhibitory effect”. Also, in assay [4] (10,000 pmol/l), the “effect on cAMP/PKA activity in alpha cells” value is on record as “increased cAMP/PKA activity”.
